Results: patent US20020082213A1 (priority 1996, published 2002)

Experiments:
LC132 receptors = details: cited from earlier work
[1] = system: female albino mice (Ibm: MORO); assay: Operant conflict test for anxiolytic effect; type: in vivo; details: 10 mg/kg oral, 30 minutes prior to testing

Compound | inhibition of cyclic AMP formation (LC132 receptors) | punished lever-pressing [1] | unpunished responding [1]
dynorphin A | weakly inhibited |  | 
CN1C(=O)CN=C(c2ccccc2)c2cc(Cl)ccc21 [diazepam] |  | enhanced punished lever-pressing | some reduction of unpunished responding
